This passage reports Solubility test and solubility results from patent US9340580B2, “Peptide with multiple epitopes” (priority 2007, dated 2016).

Data set [1] in a line: solubility pre-screen in an aqueous, acidic milieu. The class given is physicochemical.
Data set [2] is described as follows: precipitation in the aqueous solution of the binding assay. Format: physicochemical. The settings on record: aqueous solution of the MHC class II binding assay, read-out: Precipitation in assay: lowest concentration at which an insoluble white precipitate is seen. The text has this: This is a characteristic of promiscuous HLA-DRB1* binders.

Values joined by “and” are separate entries in the source; they are usually repeats but may differ in a detail not shown here. Equal values may be shown once. Where a SMILES comes first, the peptide text is derived from it.

As for `CC[C@H](C)[C@H](NC(=O)[C@@H](NC(=O)[C@H](C)NC(=O)[C@@H](NC(=O)[C@H](C)NC(=O)[C@H](CO)NC(=O)[C@H](Cc1c[nH]cn1)NC(=O)[C@@H](NC(=O)[C@H](CCC(N)=O)NC(=O)[C@H](C)NC(=O)[C@H](CC(C)C)NC(=O)[C@H](C)NC(=O)[C@H](CCC(=O)O)NC(=O)[C@@H](N)CCCNC(=N)N)[C@@H](C)O)[C@@H](C)CC)C(C)C)C(=O)O` [HDM09A] (H-REALAQTHSAIAVI-OH; N-terminus and C-terminus assumed), the Solubility test result in data set [1] was “YES”. In addition, the solubility in data set [2] was 1000 µM and 2900 µg/mL. Take `CC(C)C[C@H](NC(=O)[C@H](CCC(N)=O)NC(=O)[C@H](Cc1ccccc1)NC(=O)[C@@H]1CCCN1C(=O)[C@@H](N)CCCCN)C(=O)N[C@@H](CCC(=O)O)C(=O)N[C@@H](C)C(=O)N[C@H](C(=O)N[C@@H](Cc1ccccc1)C(=O)N[C@@H](CCC(=O)O)C(=O)N[C@@H](C)C(=O)N[C@@H](CC(N)=O)C(=O)N[C@@H](CCC(N)=O)C(=O)N[C@@H](CC(N)=O)C(=O)N[C@H](C(=O)N[C@@H](CCCCN)C(=O)O)[C@@H](C)O)C(C)C` [HDM21A] (H-KPFQLEAVFEANQNTK-OH; N-terminus and C-terminus assumed): the Solubility test result in data set [1] is “YES”. Also, the solubility in data set [2] was 5000 µM and 9300 µg/mL.

As to `CC(C)C[C@H](NC(=O)[C@H](CCC(N)=O)NC(=O)[C@H](Cc1ccccc1)NC(=O)[C@@H]1CCCN1C(=O)[C@H](CCCCN)NC(=O)CNC(=O)[C@@H](N)CCCNC(=N)N)C(=O)N[C@@H](CCC(=O)O)C(=O)N[C@@H](C)C(=O)N[C@H](C(=O)N[C@@H](Cc1ccccc1)C(=O)N[C@@H](CCC(=O)O)C(=O)N[C@@H](C)C(=O)N[C@@H](CC(N)=O)C(=O)N[C@@H](CCC(N)=O)C(=O)N[C@@H](CC(N)=O)C(=O)N[C@H](C(=O)O)[C@@H](C)O)C(C)C` [HDM21B] (H-RGKPFQLEAVFEANQNT-OH; N-terminus and C-terminus assumed), the Solubility test result in data set [1] is “YES”. Also, the solubility in data set [2] was 1000 µM and 1980 µg/mL. Regarding `CC(C)C[C@H](NC(=O)[C@H](CCC(N)=O)NC(=O)[C@H](Cc1ccccc1)NC(=O)[C@@H]1CCCN1C(=O)[C@@H](N)CCCCN)C(=O)N[C@@H](CCC(=O)O)C(=O)N[C@@H](C)C(=O)N[C@H](C(=O)N[C@@H](Cc1ccccc1)C(=O)N[C@@H](CCC(=O)O)C(=O)N[C@@H](C)C(=O)N[C@@H](CC(N)=O)C(=O)N[C@@H](CCC(N)=O)C(=O)N[C@@H](CC(N)=O)C(=O)N[C@H](C(=O)O)[C@@H](C)O)C(C)C` [HDM21] (H-KPFQLEAVFEANQNT-OH; N-terminus and C-terminus assumed), in data set [1], the Solubility test result is reported as “YES”. The solubility in data set [2] was 200 µM and 300 µg/mL. On to `CC[C@H](C)[C@H](NC(=O)[C@H](C)NC(=O)[C@H](CS)NC(=O)[C@H](C)NC(=O)[C@H](CC(C)C)NC(=O)[C@@H](NC(=O)CNC(=O)[C@@H](N)CC(=O)O)C(C)C)C(=O)N[C@@H](C)C(=O)N[C@H](C(=O)N[C@@H](Cc1c[nH]cn1)C(=O)N[C@@H](C)C(=O)N[C@@H](CCCCN)C(=O)N[C@H](C(=O)N[C@@H](CCCNC(=N)N)C(=O)O)[C@@H](C)CC)[C@@H](C)O` [HDM26A] (H-DGVLACAIATHAKIR-OH; N-terminus and C-terminus assumed), for which, in data set [2], the solubility was 1000 µM and 1500 µg/mL. Regarding `CC[C@H](C)[C@H](NC(=O)[C@H](CCC(=O)O)NC(=O)[C@@H](NC(=O)[C@H](CCCCN)NC(=O)[C@H](C)N)[C@@H](C)CC)C(=O)N[C@@H](CCCCN)C(=O)N[C@@H](C)C(=O)N[C@@H](CO)C(=O)N[C@@H](CC(C)C)C(=O)N[C@@H](CC(=O)O)C(=O)NCC(=O)N[C@@H](CC(C)C)C(=O)N[C@@H](CCC(=O)O)C(=O)O` [HDM27] (H-AKIEIKASLDGLE-OH), the Solubility test result in data set [1] is recorded as “YES”. The solubility in data set [2] was 1000 µM and 1400 µg/mL. Turning to `CC[C@H](C)[C@H](NC(=O)[C@H](C)NC(=O)[C@H](C)NC(=O)[C@@H](NC(=O)[C@H](C)NC(=O)[C@H](CCC(=O)O)NC(=O)[C@H](CC(=O)O)NC(=O)[C@@H](NC(=O)[C@H](C)NC(=O)[C@@H](N)CCCCN)C(C)C)C(C)C)C(=O)N[C@@H](CCC(=O)O)C(=O)N[C@@H](CCCCN)C(=O)N[C@@H](CO)C(=O)O` [HDM28] (H-KAVDEAVAAIEKS-OH), in data set [1], the Solubility test result was “YES”. The solubility in data set [2] is 1000 µM and 1300 µg/mL. For the compound `CSCC[C@H](NC(=O)[C@@H]1CCCN1C(=O)[C@H](CC(=O)O)NC(=O)[C@H](Cc1ccccc1)NC(=O)[C@@H](NC(=O)[C@H](CCC(=O)O)NC(=O)[C@H](CO)NC(=O)[C@@H](N)CCCCN)[C@@H](C)O)C(=O)N[C@@H](CCCCN)C(=O)N[C@H](C(=O)N1CCC[C@H]1C(=O)N[C@@H](CC(=O)O)C(=O)N[C@@H](Cc1c[nH]cn1)C(=O)N[C@@H](CO)C(=O)N[C@@H](CC(=O)O)C(=O)O)C(C)C` [HDM29B] (H-KSETFDPMKVPDHSD-OH), the Solubility test entry in data set [1] was “YES”. Besides, in data set [2], the solubility is 1000 µM and 1700 µg/mL. In the case of `CC[C@H](C)[C@H](NC(=O)CNC(=O)[C@@H](NC(=O)[C@H](Cc1c[nH]cn1)NC(=O)[C@H](CCCNC(=N)N)NC(=O)[C@H](CCC(=O)O)NC(=O)[C@H](Cc1ccccc1)NC(=O)[C@H](CCCCN)NC(=O)[C@@H](N)CC(=O)O)[C@@H](C)CC)C(=O)N[C@H](C(=O)N[C@@H](CC(=O)O)C(=O)N[C@@H](CC(C)C)C(=O)N[C@@H](CCCCN)C(=O)O)[C@@H](C)CC` [HDM30] (H-DKFERHIGIIDLK-OH; N-terminus and C-terminus assumed), the Solubility test entry in data set [1] is reported as “YES”. In addition, the solubility in data set [2] is 5000 µM and 7900 µg/mL.

On to `CC[C@H](C)[C@H](NC(=O)CNC(=O)[C@@H](NC(=O)[C@@H](N)Cc1c[nH]cn1)[C@@H](C)CC)C(=O)N[C@H](C(=O)N[C@@H](CC(=O)O)C(=O)N[C@@H](CC(C)C)C(=O)N[C@@H](CCCCN)C(=O)NCC(=O)N[C@@H](CCC(=O)O)C(=O)N[C@@H](CC(C)C)C(=O)N[C@@H](CC(=O)O)C(=O)N[C@@H](CCSC)C(=O)N[C@@H](CCCNC(=N)N)C(=O)N[C@@H](CC(N)=O)C(=O)O)[C@@H](C)CC` [HDM31A] (H-HIGIIDLKGELDMRN-OH), for which the Solubility test entry in data set [1] is given as “YES”. Besides, the solubility in data set [2] was 1000 µM and 1700 µg/mL. Take `CC[C@H](C)[C@H](N)C(=O)NCC(=O)N[C@H](C(=O)N[C@H](C(=O)N[C@@H](CC(=O)O)C(=O)N[C@@H](CC(C)C)C(=O)N[C@@H](CCCCN)C(=O)NCC(=O)N[C@@H](CCC(=O)O)C(=O)N[C@@H](CC(C)C)C(=O)N[C@@H](CC(=O)O)C(=O)N[C@@H](CCSC)C(=O)N[C@@H](CCCNC(=N)N)C(=O)N[C@@H](CC(N)=O)C(=O)O)[C@@H](C)CC)[C@@H](C)CC` [HDM31] (H-IGIIDLKGELDMRN-OH): the solubility in data set [2] was 1000 µM and 1800 µg/mL. Turning to `CC[C@H](C)[C@H](N)C(=O)N[C@@H](CC(=O)O)C(=O)N[C@@H](CC(C)C)C(=O)N[C@@H](CCCCN)C(=O)NCC(=O)N[C@@H](CCC(=O)O)C(=O)N[C@@H](CC(C)C)C(=O)N[C@@H](CC(=O)O)C(=O)N[C@@H](CCSC)C(=O)N[C@@H](CCCNC(=N)N)C(=O)N[C@@H](CC(N)=O)C(=O)N[C@H](C(=O)N[C@@H](CCC(N)=O)C(=O)N[C@H](C(=O)N[C@@H](CCCNC(=N)N)C(=O)O)C(C)C)[C@@H](C)CC` [HDM32A] (H-IDLKGELDMRNIQVR-OH), in data set [1], the Solubility test entry is “YES”. Also, the solubility in data set [2] is 5000 µM and 9000 µg/mL. Regarding `CC[C@H](C)[C@H](N)C(=O)N[C@@H](CC(=O)O)C(=O)N[C@@H](CC(C)C)C(=O)N[C@@H](CCCCN)C(=O)NCC(=O)N[C@@H](CCC(=O)O)C(=O)N[C@@H](CC(C)C)C(=O)N[C@@H](CC(=O)O)C(=O)N[C@@H](CCSC)C(=O)N[C@@H](CCCNC(=N)N)C(=O)N[C@@H](CC(N)=O)C(=O)N[C@H](C(=O)N[C@@H](CCC(N)=O)C(=O)O)[C@@H](C)CC` [HDM32] (H-IDLKGELDMRNIQ-OH; N-terminus and C-terminus assumed), the Solubility test entry in data set [1] is “YES”. In data set [2], the solubility is 5000 µM and 7700 µg/mL.

With `CC(C)[C@H](NC(=O)[C@H](CCCNC(=N)N)NC(=O)[C@@H](N)CCCCN)C(=O)NCC(=O)N[C@@H](CC(=O)O)C(=O)N[C@@H](C)C(=O)N[C@@H](CC(N)=O)C(=O)N[C@H](C(=O)N[C@@H](CCCCN)C(=O)N[C@@H](CO)C(=O)N[C@@H](CCC(=O)O)C(=O)N[C@@H](CC(=O)O)C(=O)NCC(=O)O)C(C)C` [HDM36] (H-KRVGDANVKSEDG-OH), in data set [1], the Solubility test entry is given as “YES”.

With `CC(C)[C@H](NC(=O)CNC(=O)[C@H](CC(=O)O)NC(=O)[C@H](CCC(=O)O)NC(=O)[C@H](CO)NC(=O)[C@H](CCCCN)NC(=O)[C@@H](NC(=O)[C@H](CC(N)=O)NC(=O)[C@H](C)N)C(C)C)C(=O)N[C@H](C(=O)N[C@@H](CCCCN)C(=O)N[C@@H](C)C(=O)N[C@@H](Cc1c[nH]cn1)C(=O)O)C(C)C` [HDM37] (H-ANVKSEDGVVKAH-OH), the Solubility test entry in data set [1] was “YES”. Same read-out and setting: the value for `CSCC[C@H](NC(=O)[C@H](CO)NC(=O)[C@@H](NC(=O)[C@@H](NC(=O)[C@H](CC(=O)O)NC(=O)[C@@H](N)CC(=O)O)C(C)C)C(C)C)C(=O)N[C@@H](CCC(=O)O)C(=O)N[C@@H](Cc1ccc(O)cc1)C(=O)N[C@@H](CC(=O)O)C(=O)N[C@@H](CC(C)C)C(=O)N[C@@H](C)C(=O)N[C@@H](Cc1ccc(O)cc1)C(=O)N[C@@H](CCCCN)C(=O)O` [HDM39] (H-DDVVSMEYDLAYK-OH; N-terminus and C-terminus assumed) was “NO*”; that for `CSCC[C@H](NC(=O)[C@H](CCC(=O)O)NC(=O)[C@H](C)NC(=O)[C@H](CCCNC(=N)N)NC(=O)[C@@H](NC(=O)[C@@H](NC(=O)[C@@H](N)CC(=O)O)[C@@H](C)O)C(C)C)C(=O)N[C@H](C(=O)N[C@@H](CCCCN)C(=O)N[C@H](C(=O)N[C@@H](CC(C)C)C(=O)N[C@@H](C)C(=O)N1CCC[C@H]1C(=O)O)C(C)C)[C@@H](C)O` [HDM49] (H-DTVRAEMTKVLAP-OH; N-terminus and C-terminus assumed) was “YES”.
